How the values were obtained:
miR-199a = test: Northern blotting of miR-199a in myocytes; format: cell-based, rat; settings: 100 μM, 16 h
Text: g. […] Total RNA was then extracted and analyzed by Northern blotting for the miRNA indicated on the left (n=2).
(§1) Northern blotting—As previously described.

[1] = test system: prolyl hydroxylase 2 (PHD2); test: PHD2 protein in myocytes by Western blotting; format: cell-based, rat; settings: myocytes overexpressing Sirt1, 20 mM
Description: b. Myocytes were treated as described in (a.) and as indicated in the grid by + signs. Protein was extracted and analyzed by Western blotting (n=3).
d. Myocytes were subjected to 24 h anoxia or HPC, before or after treatment with a control or miR-199a-expressing virus for 24 h where indicated by + signs. Protein was extracted and analyzed by Western blotting for the molecules indicated on the left.
e. Myocytes were treated with a control or Sirt1-overexpressing virus in the absence or presence or 20 mM nicotinamide (NAM). Protein was extracted and analyzed by Western blotting (n=3).
(§2) Cellular fractionation and Western blotting—Mitochondria was isolated using ProteoExtract Cytosol/Mitochondria Fractionation Kit (Calbiochem, NJ), according to the manufacturer's protocol. Fifteen μg of protein was separated on a 4% to 20% gradient SDS-PAGE (Criterion gels, Bio-Rad, CA) and transferred onto TransBlot Transfer membrane (Bio-Rad, CA).

Sirt1 = Sirt1 protein in myocytes by Western blotting; format: cell-based, rat; settings: 40 μM, 24 h
Description: c. […] Protein was then extracted and analyzed by Western blotting.
b. Cultured adult rat cardiac myocytes were treated with miR-199a eraser for 24 h or HPC. Protein was extracted and analyzed by Western blotting for the molecules indicated on the left of each panel (n=3).
as §2

SPRY2 = SPRY2 protein in cardiocytes (Western blot, immunostaining); format: cell-based, rat; settings: isoproterenol and β2AR
Text: Using Western blot analysis down-regulation of endogenous SPRY2 (52±4%) was confirmed upon over-expression of miR-21 for 48 hr (FIG. 8d). Since sprouty negatively regulates erk1/2, phospho-erk1/2 was used as a marker for monitoring changes in Spry2 function that would be regulated by changes in its levels. […] Thus, SPRY2 is a downstream target of miR-21 (could be a direct or indirect target at this juncture) and has limiting cellular concentrations.
The physiological relevance of these miR-21-induced outgrowths were assessed. After treatment of the cells with isoproterenol and staining them with an antibody against the sarcomeric protein titin, cellular outgrowth that were connecting or reaching out to adjacent cells was observed (FIG. 9a). The striated pattern of titin staining reflects the presence of sarcomeres even within these branches. This effect was wide spread in all observed fields (4±3 branches/cell). Impressively, these outgrowths were abrogated by the miR-21 eraser or over-expression of SPRY2 (FIG. 9a). […] Similar results were obtained when cells were treated the a virus over-expressing β2AR (supplementary FIG. 9s). While FIG. 7 confirms that isoproterenol and β2AR induce upregulation of miR-21, FIG. 9b confirms that they also induce 70±22% downregulation of SPRY2 protein (FIG. 9b). […]

cardiocytes = test: Cellular outgrowths/branches of cultured cardiocytes; format: cell-based, rat; settings: cardiocytes treated with isoproterenol, titin staining
Description: Cell cultures and adenovirus Infection—Neonatal cardiac myocytes were prepared from Sprague Dawley rat hearts as previously described, using both pre-plating and percoll gradients for enriching of myocytes. Adult cardiac myocytes were prepared as previously described.
But after 48-72 h in culture extensive cellular outgrowths (4±3 branches/cell) were noticed that varied in length (44±28 μm) depending on the distance between neighboring cells (FIG. 8c). Sprouty, a known inhibitor of branching morphogenesis and neurite outgrowth, is predicted to be a miR-21 target by TargetScanS and PicTar miRNA target prediction software, each using a unique set of algorithms. To confirm its potential in mediating miR-21's branching effects, it was independently knocked down using adenoviral delivered short-hairpin RNA (see FIG. 8e).
The physiological relevance of these miR-21-induced outgrowths were assessed. After treatment of the cells with isoproterenol and staining them with an antibody against the sarcomeric protein titin, cellular outgrowth that were connecting or reaching out to adjacent cells was observed (FIG. 9a). The striated pattern of titin staining reflects the presence of sarcomeres even within these branches. This effect was wide spread in all observed fields (4±3 branches/cell). Impressively, these outgrowths were abrogated by the miR-21 eraser or over-expression of SPRY2 (FIG. 9a). […]

miR-21 = test: Northern blotting of miR-21 in cardiocytes; format: cell-based; settings: isolated rat cardiocytes
Text: as §1
In order to address the role of miR-21 in cardiocytes a 320 nt sequence that encompasses the miR-21 stem-loop was cloned into a recombinant adenovirus (FIG. 8a). A tandem repeat of the anti-sense sequence of mature miR-21 was also cloned under the control of the U6 promoter (FIG. 8a). […] For that reason this construct was dubbed ‘miR-21 eraser’.

Nc1ncnc2c1ncn2[C@@H]1O[C@H](CO)[C@@H](O)[C@H]1O [adenosine]
miR-199a level (miR-199a): downregulation

NC(=O)c1cccnc1 [nicotinamide]
Sirt1-induced knockdown of PHD2 [1]: reversed

Oc1ccc(C=Cc2cc(O)cc(O)c2)cc1 [resveratrol]
Sirt1 expression (Sirt1): increase

CC(C)NCC(O)c1ccc(O)c(O)c1 (stereo not drawn) [isoproterenol]
downregulation of SPRY2 protein (SPRY2): 70±22% | cellular outgrowths (cardiocytes): 4±3 branches/cell | miR-21 level (miR-21): upregulation

Reference: US9051568B2, “Anti-sense microrna expression vectors” (Rutgers, The State University of New Jersey, priority 2008, dated 2015)
